ChEMBL document CHEMBL1201862, “PubChem BioAssay data set” (2004)
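Exposure lasted 48 hours, with cells grown in 96-well plates and compounds tested at five concentrations. Abbreviation: GI50, concentration required for 50% inhibition of growth.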 Active and inactive are the calls of the source. No stated cut-off is given here; in the data, active = GI50 up to about 1.1 µM and inactive = higher. Residues, ends and D or L forms follow the SMILES beside them.

Tests used:
Test in all cases: NCI-60 cell line screen, 48 h
A498 = test system: A498
A549 = test system: A549
ACHN = test system: ACHN
COLO 205 = test system: COLO 205
HCC 2998 = test system: HCC 2998
HCT-116 = test system: HCT-116
HT-29 = test system: HT-29
Hs-578T = test system: Hs-578T
K562 = test system: K562
MCF7 = test system: MCF7
NCI-H460 = test system: NCI-H460
NCI-H522 = test system: NCI-H522
OVCAR-3 = test system: OVCAR-3
PC-3 = test system: PC-3
SF-539 = test system: SF-539
SK-MEL-2 = test system: SK-MEL-2
SK-MEL-5 = test system: SK-MEL-5
SNB-19 = test system: SNB-19
CAKI-1 = test system: CAKI-1
OVCAR-4 = test system: OVCAR-4

Measured: GI50

COc1cc(OC)c(OC)cc1/C=C/c1nc2ccccc2s1
inactive: A498 86.5 µM | A549 > 100 µM | ACHN > 100 µM | COLO 205 > 100 µM | HCC 2998 > 100 µM | HCT-116 25.2 µM | HT-29 38.7 µM | Hs-578T 67 µM | K562 5.42 µM | MCF7 82.4 µM | NCI-H460 > 100 µM | NCI-H522 40.6 µM | OVCAR-3 > 100 µM | PC-3 5.78 µM | SF-539 > 100 µM | SK-MEL-2 > 100 µM | SK-MEL-5 > 100 µM | SNB-19 > 100 µM

C=C1C(=O)OC2CC3(C)CCCC(C)C3=CC12 (stereo unspecified)
inactive: A498 3.72 µM | A549 12.6 µM | ACHN 2.61 µM | CAKI-1 3.09 µM | COLO 205 1.3 µM | HCC 2998 3.79 µM | HCT-116 3.91 µM | HT-29 3.3 µM | Hs-578T 2.91 µM | K562 2.35 µM | MCF7 1.78 µM | NCI-H460 3.03 µM | NCI-H522 1.51 µM | OVCAR-4 4.03 µM | PC-3 14.8 µM | SF-539 1.35 µM | SK-MEL-2 10.4 µM | SK-MEL-5 1.55 µM | SNB-19 13.1 µM

CCOC(=O)c1ccc(NC(=O)O/N=C(/Cl)CCl)cc1
inactive: A498 15.2 µM | A549 37.1 µM | ACHN 12.6 µM | CAKI-1 > 100 µM | COLO 205 39.6 µM | HCC 2998 > 10 µM | HCT-116 50.1 µM | HT-29 54.6 µM | Hs-578T > 100 µM | K562 25.2 µM | MCF7 34.8 µM | NCI-H460 47.9 µM | OVCAR-3 37.6 µM | OVCAR-4 71.1 µM | PC-3 33.6 µM | SF-539 69 µM | SK-MEL-2 60.5 µM | SK-MEL-5 31.6 µM | SNB-19 86.1 µM

COc1ccc(Oc2nc3ccc(C(F)(F)F)cc3nc2-c2ccccc2)cc1
inactive: A498 > 100 µM | ACHN > 100 µM | CAKI-1 > 100 µM | COLO 205 > 100 µM | HCC 2998 25.3 µM | HCT-116 > 100 µM | HT-29 54.3 µM | Hs-578T > 100 µM | K562 87.9 µM | MCF7 65.5 µM | NCI-H460 > 100 µM | NCI-H522 > 100 µM | OVCAR-3 > 100 µM | OVCAR-4 > 100 µM | PC-3 > 100 µM | SK-MEL-2 > 100 µM | SK-MEL-5 > 100 µM | SNB-19 > 100 µM

N#C/C(=C/NC(=S)Nc1ccc(S(N)(=O)=O)cc1)C(N)=O
inactive: A498 > 100 µM | A549 > 100 µM | ACHN > 100 µM | CAKI-1 > 100 µM | COLO 205 > 100 µM | HCC 2998 > 100 µM | HCT-116 > 100 µM | HT-29 > 100 µM | Hs-578T > 100 µM | MCF7 > 100 µM | NCI-H460 > 100 µM | NCI-H522 > 100 µM | OVCAR-3 > 100 µM | OVCAR-4 > 100 µM | PC-3 > 100 µM | SF-539 > 100 µM | SK-MEL-5 > 100 µM

Cc1cn(C2CC(n3cc(Cn4cc(F)c(=O)[nH]c4=O)nn3)C(CO)O2)c(=O)[nH]c1=O (stereo unspecified)
inactive: A498 > 100 µM | A549 > 100 µM | ACHN > 100 µM | CAKI-1 > 100 µM | COLO 205 > 100 µM | HCC 2998 > 100 µM | HCT-116 > 100 µM | Hs-578T > 100 µM | MCF7 > 100 µM | OVCAR-3 > 100 µM | OVCAR-4 > 100 µM | PC-3 > 100 µM | SF-539 > 100 µM | SK-MEL-2 > 100 µM | SK-MEL-5 > 100 µM | SNB-19 > 100 µM

O=C(Cn1c(C(=O)/C=C/c2ccco2)nc2ccccc21)c1ccc(Cl)cc1
inactive: A498 17.2 µM | A549 26.5 µM | ACHN 26.2 µM | COLO 205 19.4 µM | HCC 2998 17.1 µM | HCT-116 16.3 µM | HT-29 26.1 µM | Hs-578T 1.29 µM | K562 11.7 µM | MCF7 19.9 µM | NCI-H460 12.3 µM | OVCAR-3 31.5 µM | OVCAR-4 14.4 µM | PC-3 15.8 µM | SF-539 44.9 µM | SK-MEL-2 12.3 µM | SK-MEL-5 19.9 µM | SNB-19 27.5 µM

CCC(C)C(NC(=O)C1CCCN1)C(=O)NC(C(=O)NCC(=O)NC(CC(N)=O)C(=O)NC(CC(C)C)C(=O)NC(CC(C)C)C(=O)NC(CCCCN)C(N)=O)C(C)C (stereo unspecified) (H-PIVGNLLK-NH2; configuration not given here)
inactive: A498 > 75 µM | A549 > 75 µM | ACHN > 75 µM | CAKI-1 > 75 µM | COLO 205 > 75 µM | HCT-116 > 75 µM | HT-29 > 75 µM | Hs-578T > 75 µM | K562 > 75 µM | MCF7 > 75 µM | NCI-H522 > 75 µM | OVCAR-3 > 75 µM | OVCAR-4 > 75 µM | PC-3 > 75 µM | SF-539 > 75 µM | SK-MEL-2 > 75 µM | SK-MEL-5 > 75 µM | SNB-19 > 75 µM

N#C[C@H](C(=O)c1ccccc1F)c1nc2ccccc2[nH]1
inactive: A498 87.9 µM | A549 > 100 µM | ACHN > 100 µM | CAKI-1 > 100 µM | COLO 205 > 100 µM | HCC 2998 > 100 µM | HCT-116 > 100 µM | HT-29 69.2 µM | Hs-578T 85.5 µM | K562 > 100 µM | MCF7 92 µM | NCI-H460 > 100 µM | OVCAR-3 > 100 µM | OVCAR-4 > 100 µM | PC-3 > 100 µM | SF-539 > 100 µM | SK-MEL-2 > 100 µM | SNB-19 > 100 µM

O=c1oc2cc(O)ccc2c(O)c1C(c1ccccc1F)c1c(O)c2ccc(O)cc2oc1=O
inactive: A498 > 100 µM | A549 > 100 µM | ACHN > 100 µM | CAKI-1 > 100 µM | COLO 205 > 100 µM | HCC 2998 21.2 µM | HCT-116 48.4 µM | HT-29 > 100 µM | Hs-578T 68.9 µM | K562 25.4 µM | MCF7 45.2 µM | NCI-H460 > 100 µM | NCI-H522 > 100 µM | OVCAR-3 > 100 µM | PC-3 > 100 µM | SF-539 31.7 µM | SK-MEL-2 45 µM | SK-MEL-5 28.4 µM | SNB-19 > 100 µM

COc1cc(C=O)cc(/C=N/N=C/c2ccccc2O)c1O
inactive: A498 > 100 µM | A549 79.6 µM | ACHN 16.7 µM | CAKI-1 19.8 µM | COLO 205 30.5 µM | HCT-116 26.1 µM | HT-29 34.1 µM | Hs-578T 2.92 µM | MCF7 64.7 µM | NCI-H460 31.4 µM | NCI-H522 40.5 µM | OVCAR-3 25.5 µM | OVCAR-4 > 100 µM | PC-3 12.1 µM | SF-539 4.73 µM | SK-MEL-2 17.3 µM | SK-MEL-5 29.1 µM | SNB-19 32.3 µM

CCOC(=O)C#Cc1ccccc1
inactive: A498 21.3 µM | A549 13.2 µM | ACHN 14.6 µM | CAKI-1 14.4 µM | COLO 205 11.2 µM | HCC 2998 12.2 µM | HCT-116 1.91 µM | HT-29 7.24 µM | Hs-578T 19.3 µM | K562 2.14 µM | MCF7 10.1 µM | NCI-H460 60 µM | OVCAR-3 19.1 µM | OVCAR-4 2.54 µM | PC-3 8.95 µM | SF-539 5.74 µM | SK-MEL-2 1.69 µM | SK-MEL-5 3.72 µM | SNB-19 14.8 µM

Cc1nc2c(=O)n3c4c(cccc4c2o1)CCC3
inactive: A498 > 100 µM | A549 > 100 µM | ACHN > 100 µM | CAKI-1 > 100 µM | COLO 205 > 100 µM | HCC 2998 > 100 µM | HCT-116 43.5 µM | HT-29 76 µM | Hs-578T > 100 µM | K562 72.8 µM | MCF7 > 100 µM | NCI-H460 78 µM | OVCAR-3 > 100 µM | OVCAR-4 > 100 µM | PC-3 45.9 µM | SF-539 73.5 µM | SK-MEL-2 > 100 µM | SK-MEL-5 > 100 µM | SNB-19 > 100 µM

O=C1/C(=C/c2ccc(Br)s2)NC(=S)N1c1ccccc1
inactive: A498 51.1 µM | ACHN 32.1 µM | CAKI-1 44.5 µM | COLO 205 84.9 µM | HCC 2998 > 100 µM | HCT-116 44.4 µM | HT-29 > 100 µM | Hs-578T 38.6 µM | K562 56.8 µM | MCF7 34.5 µM | NCI-H460 51.5 µM | NCI-H522 46.7 µM | OVCAR-3 62.4 µM | OVCAR-4 27 µM | PC-3 > 100 µM | SK-MEL-2 > 100 µM | SK-MEL-5 63.2 µM | SNB-19 26.9 µM

O=c1n(-c2ccccc2)c(=O)n2n1C1Cc3ccccc3C12 (stereo unspecified)
inactive: A498 > 100 µM | A549 > 100 µM | ACHN > 100 µM | CAKI-1 > 100 µM | COLO 205 > 100 µM | HCT-116 > 100 µM | HT-29 > 100 µM | Hs-578T 15 µM | K562 > 100 µM | MCF7 > 100 µM | NCI-H460 > 100 µM | OVCAR-3 > 100 µM | PC-3 > 100 µM | SF-539 > 100 µM | SK-MEL-2 > 100 µM | SK-MEL-5 > 100 µM | SNB-19 > 100 µM
